Marks after values point to notes of the source that are not given here.
System: male rats
Experiment: 28-day repeated dose study, plasma metabolite profiling (GC-MS, LC-MS), male rats
Type: in vivo, rat
Description: Drinking water was also offered ad libitum.

## Cc1ncc[nH]1 [2-Methylimidazole]
Day 7
  18-Hydroxy-11-deoxycorticosterone, plasma, treatment ratio versus control: 0.49*
  Alanine, plasma, treatment ratio versus control: 0.76*
  Arachidonic acid (C20:cis[5,8,11,14]4), plasma, treatment ratio versus control: 0.76*
  Coenzyme Q9, plasma, treatment ratio versus control: 0.72*
  Creatinine, plasma, treatment ratio versus control: 1.23*
  DAG (C18:1, C18:2), plasma, treatment ratio versus control: 0.81
  Fructose-6-phosphate, plasma, treatment ratio versus control: 0.76
  Galactose, lipid fraction, plasma, treatment ratio versus control: 0.81*
  Glucosamine, plasma, treatment ratio versus control: 1
  Glucose, plasma, treatment ratio versus control: 0.86*
  Glycerol, polar fraction, plasma, treatment ratio versus control: 0.75*
  Heneicosanoic acid (C21:0), plasma, treatment ratio versus control: 0.92
  Lactate, plasma, treatment ratio versus control: 0.68
  Linolenic acid (C18:cis[9,12,15]3), plasma, treatment ratio versus control: 0.59*
  Lysine, plasma, treatment ratio versus control: 0.81*
  Malate, plasma, treatment ratio versus control: 0.65*
  Oleic acid (C18:cis[9]1), plasma, treatment ratio versus control: 0.85*
  Palmitoleic acid (C16:cis[9]1), plasma, treatment ratio versus control: 0.81
  Phenylalanine, plasma, treatment ratio versus control: 0.96
  Phosphate (inorganic and organic phosphates), plasma, treatment ratio versus control: 0.9*
  Pyruvate, plasma, treatment ratio versus control: 0.84
  Spermidine, plasma, treatment ratio versus control: 0.77*
  TAG (C16:0,C16:1), plasma, treatment ratio versus control: 0.67*
  Uracil, plasma, treatment ratio versus control: 0.67*
  myo-Inositol, plasma, treatment ratio versus control: 0.85*
  trans-4-Hydroxyproline, plasma, treatment ratio versus control: 0.73*
Day 14
  18-Hydroxy-11-deoxycorticosterone, plasma, treatment ratio versus control: 0.59*
  Alanine, plasma, treatment ratio versus control: 0.84*
  Arachidonic acid (C20:cis[5,8,11,14]4), plasma, treatment ratio versus control: 0.83*
  Coenzyme Q9, plasma, treatment ratio versus control: 0.67*
  Creatinine, plasma, treatment ratio versus control: 1.45*
  DAG (C18:1, C18:2), plasma, treatment ratio versus control: 0.74*
  Fructose-6-phosphate, plasma, treatment ratio versus control: 1.08
  Galactose, lipid fraction, plasma, treatment ratio versus control: 1
  Glucosamine, plasma, treatment ratio versus control: 1.15
  Glucose, plasma, treatment ratio versus control: 0.88*
  Glycerol, polar fraction, plasma, treatment ratio versus control: 0.84*
  Heneicosanoic acid (C21:0), plasma, treatment ratio versus control: 0.87*
  Lactate, plasma, treatment ratio versus control: 0.69*
  Linolenic acid (C18:cis[9,12,15]3), plasma, treatment ratio versus control: 0.57*
  Lysine, plasma, treatment ratio versus control: 0.97
  Malate, plasma, treatment ratio versus control: 0.8*
  Oleic acid (C18:cis[9]1), plasma, treatment ratio versus control: 0.82*
  Palmitoleic acid (C16:cis[9]1), plasma, treatment ratio versus control: 0.77*
  Phenylalanine, plasma, treatment ratio versus control: 0.96*
  Phosphate (inorganic and organic phosphates), plasma, treatment ratio versus control: 0.89*
  Pyruvate, plasma, treatment ratio versus control: 0.69*
  Spermidine, plasma, treatment ratio versus control: 0.69*
  TAG (C16:0,C16:1), plasma, treatment ratio versus control: 0.38*
  Uracil, plasma, treatment ratio versus control: 0.67*
  myo-Inositol, plasma, treatment ratio versus control: 0.97
  trans-4-Hydroxyproline, plasma, treatment ratio versus control: 0.75*
Day 28
  18-Hydroxy-11-deoxycorticosterone, plasma, treatment ratio versus control: 0.58
  Alanine, plasma, treatment ratio versus control: 0.92*
  Arachidonic acid (C20:cis[5,8,11,14]4), plasma, treatment ratio versus control: 0.97
  Coenzyme Q9, plasma, treatment ratio versus control: 0.73*
  Creatinine, plasma, treatment ratio versus control: 1.65*
  DAG (C18:1, C18:2), plasma, treatment ratio versus control: 0.67
  Fructose-6-phosphate, plasma, treatment ratio versus control: 0.83*
  Galactose, lipid fraction, plasma, treatment ratio versus control: 1.15
  Glucosamine, plasma, treatment ratio versus control: 0.84
  Glucose, plasma, treatment ratio versus control: 0.87*
  Glycerol, polar fraction, plasma, treatment ratio versus control: 0.79*
  Heneicosanoic acid (C21:0), plasma, treatment ratio versus control: 1.08
  Lactate, plasma, treatment ratio versus control: 0.77*
  Linolenic acid (C18:cis[9,12,15]3), plasma, treatment ratio versus control: 0.53*
  Lysine, plasma, treatment ratio versus control: 0.88*
  Malate, plasma, treatment ratio versus control: 0.69*
  Oleic acid (C18:cis[9]1), plasma, treatment ratio versus control: 0.8*
  Palmitoleic acid (C16:cis[9]1), plasma, treatment ratio versus control: 0.88*
  Phenylalanine, plasma, treatment ratio versus control: 0.93*
  Phosphate (inorganic and organic phosphates), plasma, treatment ratio versus control: 1.02
  Pyruvate, plasma, treatment ratio versus control: 0.69*
  Spermidine, plasma, treatment ratio versus control: 0.79*
  TAG (C16:0,C16:1), plasma, treatment ratio versus control: 0.71*
  Uracil, plasma, treatment ratio versus control: 0.77*
  myo-Inositol, plasma, treatment ratio versus control: 0.91*
  trans-4-Hydroxyproline, plasma, treatment ratio versus control: 0.81*

## CC(=O)CCC(C)=O [2,5-hexanedione]
Day 7
  18-Hydroxy-11-deoxycorticosterone, plasma, treatment ratio versus control: 0.89
  Alanine, plasma, treatment ratio versus control: 0.71*
  Arachidonic acid (C20:cis[5,8,11,14]4), plasma, treatment ratio versus control: 0.9
  Coenzyme Q9, plasma, treatment ratio versus control: 0.89
  Creatinine, plasma, treatment ratio versus control: 1.21*
  DAG (C18:1, C18:2), plasma, treatment ratio versus control: 0.51*
  Fructose-6-phosphate, plasma, treatment ratio versus control: 0.75*
  Galactose, lipid fraction, plasma, treatment ratio versus control: 0.96
  Glucosamine, plasma, treatment ratio versus control: 0.79*
  Glucose, plasma, treatment ratio versus control: 0.85*
  Glycerol, polar fraction, plasma, treatment ratio versus control: 0.96
  Heneicosanoic acid (C21:0), plasma, treatment ratio versus control: 0.97
  Lactate, plasma, treatment ratio versus control: 0.82*
  Linolenic acid (C18:cis[9,12,15]3), plasma, treatment ratio versus control: 0.89*
  Lysine, plasma, treatment ratio versus control: 0.96*
  Malate, plasma, treatment ratio versus control: 0.79*
  Oleic acid (C18:cis[9]1), plasma, treatment ratio versus control: 0.81*
  Palmitoleic acid (C16:cis[9]1), plasma, treatment ratio versus control: 0.82*
  Phenylalanine, plasma, treatment ratio versus control: 0.85*
  Phosphate (inorganic and organic phosphates), plasma, treatment ratio versus control: 0.89*
  Pyruvate, plasma, treatment ratio versus control: 1.04
  Spermidine, plasma, treatment ratio versus control: 0.95
  TAG (C16:0,C16:1), plasma, treatment ratio versus control: 0.49*
  Uracil, plasma, treatment ratio versus control: 0.85*
  myo-Inositol, plasma, treatment ratio versus control: 0.71*
  trans-4-Hydroxyproline, plasma, treatment ratio versus control: 0.84*
Day 14
  18-Hydroxy-11-deoxycorticosterone, plasma, treatment ratio versus control: 0.33*
  Alanine, plasma, treatment ratio versus control: 0.76*
  Arachidonic acid (C20:cis[5,8,11,14]4), plasma, treatment ratio versus control: 0.93
  Coenzyme Q9, plasma, treatment ratio versus control: 1.12*
  Creatinine, plasma, treatment ratio versus control: 1.64*
  DAG (C18:1, C18:2), plasma, treatment ratio versus control: 0.6*
  Fructose-6-phosphate, plasma, treatment ratio versus control: 0.7*
  Galactose, lipid fraction, plasma, treatment ratio versus control: 0.97
  Glucosamine, plasma, treatment ratio versus control: 0.9
  Glucose, plasma, treatment ratio versus control: 0.89*
  Glycerol, polar fraction, plasma, treatment ratio versus control: 0.98
  Heneicosanoic acid (C21:0), plasma, treatment ratio versus control: 0.84
  Lactate, plasma, treatment ratio versus control: 0.69*
  Linolenic acid (C18:cis[9,12,15]3), plasma, treatment ratio versus control: 0.57*
  Lysine, plasma, treatment ratio versus control: 0.93*
  Malate, plasma, treatment ratio versus control: 0.82*
  Oleic acid (C18:cis[9]1), plasma, treatment ratio versus control: 0.81*
  Palmitoleic acid (C16:cis[9]1), plasma, treatment ratio versus control: 1.03
  Phenylalanine, plasma, treatment ratio versus control: 0.84*
  Phosphate (inorganic and organic phosphates), plasma, treatment ratio versus control: 1
  Pyruvate, plasma, treatment ratio versus control: 0.95
  Spermidine, plasma, treatment ratio versus control: 0.89*
  TAG (C16:0,C16:1), plasma, treatment ratio versus control: 0.67*
  Uracil, plasma, treatment ratio versus control: 0.83*
  myo-Inositol, plasma, treatment ratio versus control: 0.79*
  trans-4-Hydroxyproline, plasma, treatment ratio versus control: 0.91*
Day 28
  18-Hydroxy-11-deoxycorticosterone, plasma, treatment ratio versus control: 0.24*
  Alanine, plasma, treatment ratio versus control: 0.77*
  Arachidonic acid (C20:cis[5,8,11,14]4), plasma, treatment ratio versus control: 1.03
  Coenzyme Q9, plasma, treatment ratio versus control: 1.02
  Creatinine, plasma, treatment ratio versus control: 1.35*
  DAG (C18:1, C18:2), plasma, treatment ratio versus control: 0.79*
  Fructose-6-phosphate, plasma, treatment ratio versus control: 0.69*
  Galactose, lipid fraction, plasma, treatment ratio versus control: 0.99
  Glucosamine, plasma, treatment ratio versus control: 0.91*
  Glucose, plasma, treatment ratio versus control: 0.85*
  Glycerol, polar fraction, plasma, treatment ratio versus control: 0.8*
  Heneicosanoic acid (C21:0), plasma, treatment ratio versus control: 0.99
  Lactate, plasma, treatment ratio versus control: 0.66*
  Linolenic acid (C18:cis[9,12,15]3), plasma, treatment ratio versus control: 0.92*
  Lysine, plasma, treatment ratio versus control: 0.96
  Malate, plasma, treatment ratio versus control: 0.74*
  Oleic acid (C18:cis[9]1), plasma, treatment ratio versus control: 0.92*
  Palmitoleic acid (C16:cis[9]1), plasma, treatment ratio versus control: 1.11
  Phenylalanine, plasma, treatment ratio versus control: 0.89*
  Phosphate (inorganic and organic phosphates), plasma, treatment ratio versus control: 1.01
  Pyruvate, plasma, treatment ratio versus control: 0.72*
  Spermidine, plasma, treatment ratio versus control: 0.94
  TAG (C16:0,C16:1), plasma, treatment ratio versus control: 0.95
  Uracil, plasma, treatment ratio versus control: 0.87*
  myo-Inositol, plasma, treatment ratio versus control: 0.89
  trans-4-Hydroxyproline, plasma, treatment ratio versus control: 0.87*

Source: patent US20140342379A1, “Means and Methods for Assessing Gonadal Toxicity” (BASF SE, priority 2011, published 2014)
